Measurements published in the CheMixHub ionic liquid set.
± gives the uncertainty stated by the source.

Assay: xn = mol fraction of the nth substance listed
Settings: 101 kPa

With CCCC(=O)[O-].CC[NH+](CC)CCO + CCCC[n+]1ccn(C)c1.COP(=O)([O-])OC the viscosity (278.15 K, x1 = 0.8006) was 196.8 ± 5.1 mPa·s, the viscosity (278.15 K, x1 = 1) was 189 ± 5.1 mPa·s and the viscosity (283.15 K, x1 = 0.6001) was 182.3 ± 4.4 mPa·s. For the same compound, the viscosity (283.15 K, x1 = 1) was 133.9 ± 3.3 mPa·s, the viscosity (288.15 K, x1 = 0.1023) was 864 ± 35 mPa·s and the viscosity (288.15 K, x1 = 0.6613) was 121.1 ± 2.6 mPa·s. For the same compound, the viscosity (293.15 K, x1 = 0.3985) was 163.9 ± 3.7 mPa·s, the viscosity (293.15 K, x1 = 0.498) was 123.1 ± 2.6 mPa·s and the viscosity (293.15 K, x1 = 0.6001) was 99.4 ± 2 mPa·s. The viscosity (293.15 K, x1 = 0.8788) was 74.2 ± 1.5 mPa·s, the viscosity (298.15 K, x1 = 0.1989) was 264.3 ± 6.8 mPa·s and the viscosity (303.15 K, x1 = 0.1989) was 194.8 ± 4.4 mPa·s. The viscosity (303.15 K, x1 = 0.6001) was 58.8 ± 1.1 mPa·s, the viscosity (308.15 K, x1 = 0.3985) was 73.2 ± 1.3 mPa·s and the viscosity (313.15 K, x1 = 0.3026) was 78 ± 1.3 mPa·s. It also gave a viscosity (313.15 K, x1 = 0.498) of 45.11 ± 0.79 mPa·s, a viscosity (313.15 K, x1 = 0.6613) of 33.88 ± 0.62 mPa·s and a viscosity (318.15 K, x1 = 0.1023) of 124.4 ± 2.2 mPa·s. It also gave a viscosity (318.15 K, x1 = 0.6001) of 30.12 ± 0.54 mPa·s, a viscosity (318.15 K, x1 = 0.8006) of 23.35 ± 0.46 mPa·s and a viscosity (323.15 K, x1 = 0.1989) of 69.7 ± 1 mPa·s. It also gave a viscosity (323.15 K, x1 = 0.6613) of 22.66 ± 0.42 mPa·s, a viscosity (328.15 K, x1 = 0.6001) of 20.62 ± 0.37 mPa·s and a viscosity (338.15 K, x1 = 0.6613) of 13.49 ± 0.25 mPa·s. For the same compound, the viscosity (338.15 K, x1 = 0.8006) was 11.39 ± 0.22 mPa·s, the viscosity (338.15 K, x1 = 1) was 9.73 ± 0.21 mPa·s and the viscosity (343.15 K, x1 = 0.1989) was 31.59 ± 0.46 mPa·s. The viscosity (343.15 K, x1 = 0.3985) was 18.82 ± 0.31 mPa·s, the viscosity (343.15 K, x1 = 0.6001) was 12.63 ± 0.23 mPa·s and the viscosity (348.15 K, x1 = 0.498) was 13.05 ± 0.23 mPa·s. The viscosity (353.15 K, x1 = 0.3026) was 17.55 ± 0.27 mPa·s, the viscosity (353.15 K, x1 = 0.8006) was 7.3 ± 0.14 mPa·s and the viscosity (353.15 K, x1 = 0.8788) was 6.78 ± 0.14 mPa·s. For the same compound, the viscosity (353.15 K, x1 = 1) was 6.11 ± 0.13 mPa·s, the viscosity (358.15 K, x1 = 0.3985) was 12.24 ± 0.2 mPa·s and the viscosity (358.15 K, x1 = 0.6613) was 7.62 ± 0.14 mPa·s. It also gave a viscosity (358.15 K, x1 = 1) of 5.31 ± 0.11 mPa·s, a viscosity (368.15 K, x1 = 0.3026) of 11.71 ± 0.18 mPa·s and a viscosity (368.15 K, x1 = 1) of 4.09 ± 0.09 mPa·s.
Work on c1ccsc1 + N#C[C-](C#N)C#N.OCCC[n+]1ccccc1 yielded a viscosity (293.15 K, x2 = 0) of 0.653 ± 0.065 mPa·s, a viscosity (298.15 K, x2 = 0) of 0.615 ± 0.062 mPa·s and a viscosity (303.15 K, x2 = 0) of 0.58 ± 0.058 mPa·s. For the same compound, the viscosity (308.15 K, x2 = 0) was 0.545 ± 0.055 mPa·s, the viscosity (313.15 K, x2 = 0) was 0.518 ± 0.052 mPa·s and the viscosity (318.15 K, x2 = 0) was 0.491 ± 0.049 mPa·s. For the same compound, the viscosity (323.15 K, x2 = 0) was 0.464 ± 0.047 mPa·s, the viscosity (328.15 K, x2 = 0) was 0.441 ± 0.044 mPa·s and the viscosity (333.15 K, x2 = 0) was 0.42 ± 0.042 mPa·s. The viscosity (338.15 K, x2 = 0) was 0.4 ± 0.04 mPa·s, the viscosity (343.15 K, x2 = 0) was 0.382 ± 0.038 mPa·s and the viscosity (348.15 K, x2 = 0) was 0.364 ± 0.037 mPa·s.
